Structures are written as SMILES. Like-named read-outs stand apart in the source and are kept apart here.

The subject of one experiment is OYE2p. Conditions: read-out: Enzyme / Y84V, 100 mM PBS pH 8.0, 30°C.
A further experiment deals with AdhE (Escherichia coli, UniProt P0A9Q7). Briefly: NADH consumption at […] nm, specific activity. It is filed as biochemical. Conditions: 5 mM substrate, 0.2 mM NADH, 100 mM PBS pH 8.0, 30°C.
The next experiment has as its target T1, YahK (Escherichia coli, UniProt P75691).
T1 sequence (P75691 1-349): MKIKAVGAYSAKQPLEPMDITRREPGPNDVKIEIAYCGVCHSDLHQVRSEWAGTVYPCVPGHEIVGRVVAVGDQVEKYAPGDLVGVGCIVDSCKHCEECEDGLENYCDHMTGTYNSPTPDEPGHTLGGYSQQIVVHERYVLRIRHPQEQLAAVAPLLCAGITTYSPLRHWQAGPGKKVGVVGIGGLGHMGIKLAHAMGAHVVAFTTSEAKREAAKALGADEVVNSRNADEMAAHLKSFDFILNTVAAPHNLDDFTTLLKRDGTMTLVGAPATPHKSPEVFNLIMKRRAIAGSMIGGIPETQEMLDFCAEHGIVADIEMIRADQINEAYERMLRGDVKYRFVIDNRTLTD
Nature of the experiment: NADH consumption at […] nm, specific activity. It is filed as biochemical. The note with it: 5 mM substrate, 0.2 mM NADH, 100 mM PBS pH 8.0, 30°C.

Sequence of AdhE (P0A9Q7 2-891): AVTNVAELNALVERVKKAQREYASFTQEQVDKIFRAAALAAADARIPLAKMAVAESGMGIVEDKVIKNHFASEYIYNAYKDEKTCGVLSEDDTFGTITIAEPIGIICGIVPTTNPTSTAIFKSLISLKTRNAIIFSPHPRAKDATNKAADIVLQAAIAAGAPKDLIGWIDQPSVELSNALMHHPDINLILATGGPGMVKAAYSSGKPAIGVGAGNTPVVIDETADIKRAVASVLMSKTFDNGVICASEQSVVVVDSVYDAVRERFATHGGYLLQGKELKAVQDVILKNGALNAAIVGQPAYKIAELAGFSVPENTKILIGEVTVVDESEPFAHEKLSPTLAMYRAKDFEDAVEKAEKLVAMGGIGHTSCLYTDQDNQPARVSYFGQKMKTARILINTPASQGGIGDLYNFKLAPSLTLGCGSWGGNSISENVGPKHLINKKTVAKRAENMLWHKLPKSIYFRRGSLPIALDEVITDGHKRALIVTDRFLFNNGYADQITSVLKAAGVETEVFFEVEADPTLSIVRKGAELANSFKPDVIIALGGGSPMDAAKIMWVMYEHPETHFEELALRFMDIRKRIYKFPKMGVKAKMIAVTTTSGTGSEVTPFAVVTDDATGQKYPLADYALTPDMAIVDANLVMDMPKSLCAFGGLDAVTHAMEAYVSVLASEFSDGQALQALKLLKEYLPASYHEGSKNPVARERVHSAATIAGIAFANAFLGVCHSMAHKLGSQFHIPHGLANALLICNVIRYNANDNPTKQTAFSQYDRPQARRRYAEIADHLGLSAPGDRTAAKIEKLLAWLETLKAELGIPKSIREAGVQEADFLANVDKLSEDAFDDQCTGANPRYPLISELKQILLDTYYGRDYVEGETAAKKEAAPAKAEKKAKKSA

For `CC(C)=CCC/C(C)=C\C=O` [(Z)-citral], the Km in the experiment with OYE2p (0.2 mM NADH) worked out at 326 ± 84 µM.
With `NC(=O)C1=CN([C@@H]2O[C@H](COP(=O)(O)OP(=O)(O)OC[C@H]3O[C@@H](n4cnc5c(N)ncnc54)[C@H](O)[C@@H]3O)[C@@H](O)[C@H]2O)C=CC1` [NADH], in the experiment with OYE2p (5 mM (E/Z)-citral), the Km turned out to be 27 ± 8 µM.
As for `CC(C)=CCC/C(C)=C/C=O` [(E)-citral], the “NADH consumption at 340 nm, specific activity” value at AdhE is recorded as “these enzymes have catalytic activity for the tested substrates”. The Km in the experiment on OYE2p (0.2 mM NADH) worked out at 107 ± 26 µM.
`CC(C)=CCCC(C)CC=O` (stereo not drawn) [citronellal]: the “NADH consumption at 340 nm, specific activity” value on AdhE was “approximately twice higher than that of AdhE and YahK”; at YahK, “approximately twice higher than that of AdhE and YahK”.

The values above are taken from article PMC9049607 (Microbial Biotechnology, 2021).
